{"source": "patent US5610143A", "about": "“Antibiotics GE 37468 A, B and C” (Gruppo Lepetit S.p.A., priority 1995, dated 1997)", "key": {"[1]": {"test_system": "Neisseria gonorrhoeae L997", "conditions": "GC Base broth +1% IsoVitalex, inoculum 10^4 CFU/ml, 48 h, 37° C., 5% CO2 in air"}, "[2]": {"test_system": "Staphylococcus haemolyticus L602", "conditions": "Iso-Sensitest broth, inoculum 10^4 CFU/ml, 20-24 h, 37° C."}, "[3]": {"test_system": "Bacteroides fragiles ATCC 25285", "conditions": "Wilkins-Chalgren broth, inoculum 10^5, 48 h, 37° C., N2:CO2:H2 (80:10:10)"}, "[4]": {"test_system": "Clostridium perfringens L290", "conditions": "Wilkins-Chalgren broth, inoculum 10^5, 48 h, 37° C., N2:CO2:H2 (80:10:10)"}, "[5]": {"test_system": "Candida albicans L145", "conditions": "phosphate buffered Yeast Nitrogen Base broth with glucose and L-asparagine, inoculum 10^4 CFU/ml, 20-24 h, 37° C."}, "[6]": {"test_system": "Staphylococcus aureus Smith", "assay": "MIC by broth microdilution", "format": "cell-based", "conditions": "Iso-Sensitest broth, inoculum 10^4 CFU/ml, 20-24 h, 37° C."}, "[7]": {"test_system": "Staphylococcus epidermidis ATCC 12228", "conditions": "Iso-Sensitest broth, inoculum 10^4 CFU/ml, 20-24 h, 37° C."}, "[8]": {"test_system": "Staphylococcus aureus L165", "conditions": "Iso-Sensitest broth, inoculum 10^4 CFU/ml, 20-24 h, 37° C."}, "[9]": {"test_system": "Pseudomonas aeruginosa ATCC 10145", "conditions": "Iso-Sensitest broth, inoculum 10^4 CFU/ml, 20-24 h, 37° C."}, "[10]": {"test_system": "Haemophilus influenzae ATCC 19418", "conditions": "Brain Heart Infusion broth +1% Supplement C, inoculum 10^4 CFU/ml, 48 h, 37° C., 5% CO2 in air"}, "[11]": {"test_system": "Escherichia coli L47", "conditions": "Iso-Sensitest broth, inoculum 10^4 CFU/ml, 20-24 h, 37° C."}, "[12]": {"test_system": "Proteus vulgaris ATCC 881", "conditions": "Iso-Sensitest broth, inoculum 10^4 CFU/ml, 20-24 h, 37° C."}, "[13]": {"test_system": "Enterococcus faecalis ATCC 7080", "assay": "MIC by broth microdilution", "format": "cell-based", "conditions": "Iso-Sensitest broth, inoculum 10^4 CFU/ml, 20-24 h, 37° C."}, "[14]": {"test_system": "Propionibacterium acnes ATCC 6919", "assay": "MIC by broth microdilution", "format": "cell-based", "conditions": "Wilkins-Chalgren broth, inoculum 10^5, 48 h, 37° C., N2:CO2:H2 (80:10:10)"}}, "data": [{"smiles": "Cc1oc2nc1C(=O)NC(CC(N)=O)c1nc(cs1)C(=O)NC(Cc1ccccc1)C1=NC(CS1)C(=O)NC(Cc1ccc(O)cc1)C(=O)N1C(O)CC(C)C1c1nc(cs1)-c1nc(cs1)-c1nc(-c3nc(C(N)=O)cs3)ccc1-2", "note": "(stereo not shown) [GE37468B]", "values": [{"measurement": "M.I.C.", "setting": "[1]", "value": "> 128", "unit": "microgram/ml"}, {"measurement": "M.I.C.", "setting": "[2]", "value": 0.13, "unit": "microgram/ml"}, {"measurement": "M.I.C.", "setting": "[3]", "value": "> 128", "unit": "microgram/ml"}, {"measurement": "M.I.C.", "setting": "[4]", "value": 0.016, "unit": "microgram/ml"}, {"measurement": "M.I.C.", "setting": "[5]", "value": "> 128", "unit": "microgram/ml"}, {"measurement": "M.I.C.", "setting": "[6]", "value": 0.03, "unit": "microgram/ml"}, {"measurement": "M.I.C.", "setting": "[7]", "value": 0.06, "unit": "microgram/ml"}, {"measurement": "M.I.C.", "setting": "[8]", "value": 0.03, "unit": "microgram/ml"}, {"measurement": "M.I.C.", "setting": "[9]", "value": "> 128", "unit": "microgram/ml"}, {"measurement": "M.I.C.", "setting": "[10]", "value": "> 128", "unit": "microgram/ml"}, {"measurement": "M.I.C.", "setting": "[11]", "value": "> 128", "unit": "microgram/ml"}, {"measurement": "M.I.C.", "setting": "[12]", "value": "> 128", "unit": "microgram/ml"}, {"measurement": "M.I.C.", "setting": "[13]", "value": 0.03, "unit": "microgram/ml"}, {"measurement": "M.I.C.", "setting": "[14]", "value": 0.016, "unit": "microgram/ml"}]}, {"smiles": "C=C(NC(=O)c1csc(-c2ccc3c(n2)-c2csc(n2)-c2csc(n2)C2C(C)CC(O)N2C(=O)C(Cc2ccc(O)cc2)NC(=O)C2CSC(=N2)C(Cc2ccccc2)NC(=O)c2csc(n2)C(CC(N)=O)NC(=O)c2nc-3oc2C)n1)C(N)=O", "note": "(stereo not shown) [GE37468C]", "values": [{"measurement": "M.I.C.", "setting": "[1]", "value": "> 128", "unit": "microgram/ml"}, {"measurement": "M.I.C.", "setting": "[2]", "value": 0.13, "unit": "microgram/ml"}, {"measurement": "M.I.C.", "setting": "[3]", "value": "> 128", "unit": "microgram/ml"}, {"measurement": "M.I.C.", "setting": "[4]", "value": 0.016, "unit": "microgram/ml"}, {"measurement": "M.I.C.", "setting": "[5]", "value": "> 128", "unit": "microgram/ml"}, {"measurement": "M.I.C.", "setting": "[6]", "value": 0.03, "unit": "microgram/ml"}, {"measurement": "M.I.C.", "setting": "[7]", "value": 0.25, "unit": "microgram/ml"}, {"measurement": "M.I.C.", "setting": "[8]", "value": 0.03, "unit": "microgram/ml"}, {"measurement": "M.I.C.", "setting": "[9]", "value": "> 128", "unit": "microgram/ml"}, {"measurement": "M.I.C.", "setting": "[10]", "value": "> 128", "unit": "microgram/ml"}, {"measurement": "M.I.C.", "setting": "[11]", "value": "> 128", "unit": "microgram/ml"}, {"measurement": "M.I.C.", "setting": "[12]", "value": "> 128", "unit": "microgram/ml"}, {"measurement": "M.I.C.", "setting": "[13]", "value": 0.03, "unit": "microgram/ml"}, {"measurement": "M.I.C.", "setting": "[14]", "value": 0.016, "unit": "microgram/ml"}]}]}
